The values below come from patent publication US7163923B2, “Peptide deformylase activated prodrugs” (Celmed Oncology (USA), Inc., priority 2001, dated 2007).

In one series the target is T1, purified PDF (Escherichia coli, UniProt P0A6K3).
T1 construct: made in house; host or cells: PDF-overexpressing E. coli
T1 sequence (P0A6K3 1-169): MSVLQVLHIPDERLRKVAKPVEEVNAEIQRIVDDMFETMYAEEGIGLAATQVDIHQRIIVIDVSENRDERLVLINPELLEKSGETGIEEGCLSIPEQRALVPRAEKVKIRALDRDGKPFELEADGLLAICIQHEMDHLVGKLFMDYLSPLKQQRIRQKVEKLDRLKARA
As to the kind of experiment: Cell-free reaction catalyzed by purified PDF (HPLC, Michaelis-Menten). The class given is biochemical, E. coli. Particulars: different concentrations of actinonin, FIG. 5. Here is the method: (§1) In a seperate experiment, cell-free reaction of PDF ECTA compounds has been studied using PDF purified from PDF-overexpressing E. coli following a procedure described in Ragusa S., et al. (2000) and Wei, et al. (2000b). NB3068 conversion was used as an example of a PDF ECTA reaction catalyzed by purified PDF. It was carried out in 50 mM HEPES buffer, pH 7.5 at room temperature. NB3068 concentrations were in the range of 2–250 μM, and the concentration of the enzyme in the reaction mixture was 25 nM. The conversion was monitored by direct injection of the reaction mixture onto an HPLC column (Adsorbosphere HS, C18, 5 μm, 4.6 mm×150 mm, Alltech). […] Kinetic parameters of the reaction were determined fitting the data to the Michaelis-Menten equation.
(§2) To confirm the role of PDF in catalyzing NB3068 transformation the rate of the reaction at different enzyme concentrations was determined (FIGS. 3 and 4). As can been seen the rate of the reaction is proportional to the enzyme concentration.

Series [1] can be described thus: Stability in mouse plasma. The class given is in vitro ADME. Here is the method: (§3) Stability of PDF ECTA compounds was determined in different media: PBS, pH 7.4 (Gibco Life Technologies), 50 mM HEPES buffer (Sigma), pH 7.5, Mueller Hinton broth (Becton Dickinson), mouse and human plasma (Sigma). Dependence of a compound concentration on time was fit to an exponential equation c=co×exp(−k×t)} where c is the running concentration of the compound, co is its initial concentration and t is time. The compound half-life was determined as t1/2=0.693/k.

Series [2] in a line: Stability in human plasma. The format is in vitro ADME. Here is the method:
as §3

The next series has as its system E. faecalis. The series is described as follows: MIC susceptibility testing (NCCLS, 96-well). The class given is cell-based. As to conditions: E. faecalis ATCC 29212, 18 hours at 35° C. Here is the method:
(§4) The NCCLS (National Committee for Clinical Laboratory Standards) method was used to determine MIC's of antimicrobial compounds. All stocks of tested compounds were prepared in either water or DMSO based on the solubility. At the highest concentration of the tested compound DMSO content should not exceed 0.5%. Briefly 2-fold serial dilutions of test compounds from the highest concentration were made in a 96-well microtiter plate. Each well was inoculated with testing bacteria in broth to a final concentration of approximately 5×10^5 CFU/ml. Bacterial growth was monitored by the increase of optical density at 600 nm using a microplate reader (Tecan SpectraFluor Plus). The MIC was defined as the lowest concentration at which bacteria growth (equivalent to visible growth) was inhibited after 18 hours of incubation at 35° C.

In the next series the test system is P. aeruginosa. As to the kind of experiment: MIC susceptibility testing (NCCLS, 96-well). Particulars: P. aeruginosa ATCC 27853, 18 hours at 35° C. The format is cell-based. Here is the method:
as §4

Another series deals with E. coli. The series is described as follows: MIC susceptibility testing (NCCLS, 96-well). The format is cell-based. Particulars: E. coli ATCC 25922, 18 hours at 35° C. The method, then:
as §4

In series [3] the test system is S. aureus. As to the kind of experiment: MIC susceptibility testing (NCCLS, 96-well). The class given is cell-based. Here is the method: as §4
Series [4] is described as follows: Stability in PBS, HEPES buffer and Mueller Hinton broth. The class given is physicochemical. The method, then: as §3
The test system of series [5] is S. aureus. As to the kind of experiment: MIC susceptibility testing (modified NCCLS, 384-well). The class given is cell-based. As to conditions: Staphylococcus aureus. Here is the method: The NCCLS (National Committee for Clinical Laboratory Standards), method to determine MIC's of antimicrobial compounds is modified for high-throughput screening. All stocks of tested compounds are prepared in either water or in DMSO depending on solubility. At the highest concentration, DMSO content should not exceed 0.5%. Briefly, twenty 2-fold serial dilutions of test compounds from the highest concentration are made in a 384-well microtiter plate. Each well is inoculated with testing bacteria in broth to a final concentration of approximately 1–1.5×10^6 cells/ml. Bacterial growth is determined by the increase of optical density at 600 nm using a microplate reader (Tecan SpectraFluor Plus). The MIC is defined as the lowest concentration at which bacterial growth (equivalent to visible growth) was inhibited after 16 to 18 hours of incubation at the appropriate temperature required for the bacteria growth.
Using the assay provided above, the potency of NB2046 was compared to triclosan.

Substrate in series [6]: CCn1cc(C(=O)O)c(=O)c2cc(F)c(N3CCN(C(=O)OCc4ccc(OC(=O)[C@H](CC(C)C)NC(=O)[C@H](CCSC)NC=O)cc4)CC3)cc21
The series is described as follows: Cell-free reaction catalyzed by purified PDF (HPLC, Michaelis-Menten). The format is biochemical, E. coli. As to conditions: other: PDF 25 nM, 50 mM HEPES pH 7.5, room temperature, substrate 2–250 μM. The method, then: as §1, §2

The mark [7] stands for this setting: S. aureus (MS) ATCC 29213, 18 hours at 35° C.
[8] abbreviates: 50 mM HEPES buffer, pH 7.5, 6 hours.
Setting [9] is: 50 mM HEPES buffer, pH 7.5, read-out: t1/2 HEPES.
The mark [10] stands for this setting: Mueller Hinton broth, read-out: t1/2 Broth.
Setting [11] is: PBS, pH 7.4, read-out: t1/2 PBS.

Values after ≈ are worked out from the molar mass of the structure shown. A value given as a limit tells only on which side of the number the result lay.

With `CCCCC[C@H](CC(=O)NO)C(=O)N[C@H](C(=O)N1CCC[C@H]1CO)C(C)C` [actinonin], the “Effect on NB3068 reaction catalyzed by purified PDF” value on purified PDF is “slows down the reaction in dose dependent manner”.

In the case of `CCn1cc(C(=O)O)c(=O)c2cc(F)c(N3CCN(C(=O)OCc4ccc(OC(=O)[C@H](CC(C)C)NC(=O)[C@H](CCSC)NC=O)cc4)CC3)cc21` [NB3068, 1-Ethyl-6-fluoro-7-(4-{4-[2-(2-formylamino-4-methylsulfanyl-butyrylamino)-4-methyl-pentanoyloxy]-benzyloxycarbonyl}-piperazin-1yl)-4-oxo-1,4-dihydro-qiuinoline-3-carboxylic acid], the half-life was 0.6 min in series [1] (read-out: t1/2 Mouse Plasma); 4.1 min in series [2] (read-out: t1/2 Human Plasma); over 720 min in series [4] (setting [9]); over 720 min in series [4] (setting [10]); over 720 min in series [4] (setting [11]). Moreover, the MIC in the series on E. faecalis was 2 µg/mL (≈ 2.7 µM); against P. aeruginosa, 0.5 µg/mL (≈ 0.674 µM); in the series on E. coli, under 0.004 µg/mL; against S. aureus [3] (setting [7]), 2 µg/mL (≈ 2.7 µM). The “percent of the compound remaining after 6 hours, HEPES” value in [4] (setting [8]) is reported as “(70%)”. The “percent of the compound remaining after 6 hours, Broth” value in series [4] (Mueller Hinton broth, 6 hours) is “(70%)”. In addition, the “percent of the compound remaining after 6 hours, PBS” value in series [4] (PBS, pH 7.4, 6 hours) is recorded as “(75%)”.

For the molecule “1-Cyclopropyl-6-fluoro-4-oxo-7-piperazin-1-yl-1,4-dihydro-quinoline-3-carboxylic acid 4-[2-(2-formylamino-4-methylsulfanyl-butyrylamino)-4-methyl-pentanoyloxy]-benzylester [NB3057]”, the “t1/2 Mouse Plasma” value in series [1] worked out at 1.4 min. Further, in [2], the “t1/2 Human Plasma” value is under 0.5 min. Besides, the MIC in the series on E. faecalis was 4 µg/mL; against P. aeruginosa, 2 µg/mL; in the series on E. coli, 0.0625 µg/mL; in the series with S. aureus [3] (S. aureus (MR) ATCC 33591, 18 hours at 35° C.), 0.5 µg/mL; against S. aureus [3] (setting [7]), 0.125 µg/mL. For the same molecule, in series [4] (buffer), the “t1/2 Broth” value is 10 h. Further, in series [4] (buffer, 6 h, pH 7.4), the “percent of the compound remaining after 6 hours, PBS” value is on record as “(82%)”. In addition, in [4] (buffer, pH 7.4), the “t1/2 PBS” value is over 12 h. The “t1/2 HEPES” value in [4] (buffer, pH 7.5) is over 12 h.

In the case of `CSCC[C@H](NC=O)C(=O)N[C@@H](CC(C)C)C(=O)Oc1ccc(CSc2cccc[n+]2[O-])cc1` [NB3024], the MIC against E. faecalis amounted to 32 µg/mL (≈ 63.3 µM); with P. aeruginosa it was 128 µg/mL (≈ 253 µM); against E. coli it was 16 µg/mL (≈ 31.6 µM); with S. aureus [3] (setting [7]) it was 8 µg/mL (≈ 15.8 µM). Further, the “percent of the compound remaining after 6 hours, HEPES” value in [4] (setting [8]) is “(88%)”. Moreover, the half-life in [4] (setting [9]), in series [4] (setting [10]) and in [4] (setting [11]) was over 720 min throughout. Besides, the “percent of the compound remaining after 6 hours, Broth” value in [4] (Mueller Hinton broth, 6 hours) was “(82%)”. Besides, the “percent of the compound remaining after 6 hours, PBS” value in series [4] (PBS, pH 7.4, 6 hours) was “(81%)”.

With `Oc1cc(Cl)ccc1Oc1ccc(Cl)cc1Cl` [Triclosan, reference compound], the MIC against S. aureus [5] (ATCC 11632 / MSSA) was 1.95 ng/mL (≈ 0.00675 µM); against S. aureus [5] (ATCC 13301 / MSSA), 0.488 ng/mL (≈ 0.00169 µM); with S. aureus [5] (ATCC 14154 / MSSA), 1.95 ng/mL (≈ 0.00675 µM); against S. aureus [5] (ATCC 33591 / MSSA), 7.81 ng/mL (≈ 0.027 µM); in the series with S. aureus [5] (ATCC 33592 / MSSA), 3.91 ng/mL (≈ 0.0135 µM); in the series with S. aureus [5] (ATCC 33593 / MSSA) it was 0.977 ng/mL (≈ 0.00337 µM). Moreover, the MIC was 1.95 ng/mL (≈ 0.00675 µM) with S. aureus [5] (ATCC 43300 / MSSA); 0.244 ng/mL (≈ 0.000843 µM) against S. aureus [5] (ATCC 700260 / MSSA); 3.91 ng/mL (≈ 0.0135 µM) against S. aureus [5] (ATCC 700698 / MSSA); at least 4000 ng/mL against S. aureus [5] (ATCC 700699 / MSSA); 1.95 ng/mL (≈ 0.00675 µM) against S. aureus [5] (ATCC 700787 / MSSA); 31.2 ng/mL (≈ 0.108 µM) against S. aureus [5] (ATCC 700788 / MSSA). Moreover, the lowest concentration to inhibit growth against S. aureus [5] (ATCC 700789 / MSSA) (MIC) was 15.6 ng/mL (≈ 0.054 µM).

As to `CSCC[C@H](NC=O)C(=O)N[C@@H](CC(C)C)C(=O)Oc1ccc(COC(=O)N(CCCl)CCCl)cc1` [NB3103, 2-(2-Formylamino-4-methylsulfanyl-butyrylamino)-4-methyl-pentanoic acid 4-{[bis-(2-chloro-ethyl)-carbamoyloxy]-methyl}-phenyl ester], the MIC in the series with E. faecalis, against P. aeruginosa, in the series with E. coli and against S. aureus [3] (setting [7]) was over 128 µg/mL each time. For the same molecule, in series [4] (setting [8]), the “percent of the compound remaining after 6 hours, HEPES” value was “(95%)”. In addition, the half-life in series [4] (setting [9]) is over 720 min; in series [4] (buffer, Mueller Hinton broth, read-out: t1/2 Broth) it was over 720 min; in [4] (buffer, PBS, pH 7.4, read-out: t1/2 PBS) it was over 720 min. Further, in series [4] (Mueller Hinton broth, 6 hours), the “percent of the compound remaining after 6 hours, Broth” value is “(95%)”. Besides, in series [4] (PBS, pH 7.4, 6 hours), the “percent of the compound remaining after 6 hours, PBS” value is listed as “(96%)”.

B1: purified PDF (Escherichia coli K-12) (protein)
chain: T1 sequence (P0A6K3 1-169)
notes: made in house; host or cells: PDF-overexpressing E. coli
Regarding B1, in series [6], the Km worked out at 125 ± 17 µM, the kcat came to 2.07 ± 0.14 s⁻¹ and the kcat/Km turned out to be 17000 M⁻¹ s⁻¹.
